Test results reported in ChEMBL document CHEMBL1159197, “Novel bromopyrrole alkaloids from the sponge Agelas dispar” (1998).
Values after ≈ are worked out from the molar mass of the structure shown. Active and inactive are the calls of the source. The calls are words filed in the database; no cut-off is given here.

Key:
[1] = tested on: Bacillus subtilis; assay: Antimicrobial activity against Bacillus subtilis ATCC 6633; format: functional
[2] = tested on: Staphylococcus aureus; assay: Antimicrobial activity against Staphylococcus aureus ATCC 6538; format: functional
[3] = tested on: Aspergillus niger; assay: Antimicrobial activity against Aspergillus niger; format: functional, organism-based

Row | MIC [1] [µg/mL] | MIC [2] [µg/mL] | Compound | Activity [1] | Activity [2] | Activity [3]
1 |  |  | C[C@]1(C[C@H](NC(=O)c2cc(Br)c[nH]2)C(=O)O)CNC=N1 | inactive | inactive | Active
2 | 45 (≈ 128 µM) | 55 (≈ 156 µM) | O=C(O)C[C@H]1CNC(=O)c2cc(Br)c(Br)n21 [LONGAMIDE B] |  |  | 
3 | 40 (≈ 123 µM) | 35 (≈ 108 µM) | Cn1c(/C=C\CNC(=O)c2cc(Br)c[nH]2)cnc1N [KERAMADINE] |  |  | 
4 |  |  | C[N+]1=CNC[C@]1(C)C[C@@H](NC(=O)c1cc(Br)c[nH]1)C(=O)[O-] |  |  | Active
5 |  |  | C[N+]1=CNC[C@]1(C)C[C@H](NC(=O)c1cc(Br)c[nH]1)C(=O)[O-] |  |  | Active
6 |  |  | C[C@]1(C[C@@H](NC(=O)c2cc(Br)c[nH]2)C(=O)O)CNC=N1 | inactive | inactive | Active
